The results in this text go back to PMC11257039, “VCP activator reverses nuclear proteostasis defects and enhances TDP-43 aggregate clearance in multisystem proteinopathy models” (The Journal of Clinical Investigation, 2024).

SMILES strings stand for the structures. Several values for one entry are separate records, joined by “and”; a condition that tells them apart may be missing. Equal entries are not always repeated. Residues, ends and D or L forms follow the SMILES beside them. *: point of attachment. Cbz = O=C(OCc1ccccc1)*

Format in all cases: cell-based
The subject of test [1] is R155H HeLa cells expressing TDP-4FL. Briefly: Immunofluorescence of TDP-4FL inclusion morphology, R155H HeLa. On the procedure: (§1) HeLa Cells were plated onto glass coverslips and transfected with TDP-4FL using Fugene HD for 24 hours. Cells were fixed with 4% paraformaldehyde (Electron Microscopy Sciences), permeabilized with 0.1% Triton-X (Thermo Fisher Scientific), and blocked with 2% FBS DPBS. Primary antibodies were diluted in 2% FBS DPBS. Cells were stained with 300 nM DAPI, and coverslips were mounted onto glass slides using ProLong Glass Antifade Mountant (Thermo Fisher Scientific). Confocal images were obtained using a Leica TCS SPE laser scanning confocal microscope. Primary antibodies used include mouse anti-Myc (9E10), rabbit anti-Myc (ab9106), mouse anti-VCP (NB120-11433), and mouse anti-ubiquitin (ST1200, Millipore) with Alexa Flour 488 or 568 (Invitrogen) as secondary antibodies. […]
(§2) morphologies with MG132 treatment.
(§3) (A) High power magnification immunofluorescence confocal images of HeLa cells expressing TDP-4FL stained for myc-TDP (green) Scale bar, 5 µm. (B) Immunofluorescence confocal images of HeLa cells treated with or without 5% 1’6-Hexanediol for 10 minutes stained for myc-TDP (green) or DAPI (blue). Scale bar, 5 µm. (C) Representative confocal microscopy immunofluorescence confocal images of HeLa cells […]
(§4) yellow represent cells that were categorized as anisosome morphology. Nuclei outline in white represent cells that were categorized as aggregate morphology. Cells with approximately more than 50% anisosome inclusions were categorized as anisosome morphology whereas cells with approximately more than 50% aggregate-like inclusions were categorized as aggregate morphology. Binucleate cells were excluded from the total counts. Scale bar, 10 µm.
(§5) (1 picture or pasted object on this page, not shown here)

Test [2] deals with A232E HeLa cells expressing TDP-4FL. Briefly: Immunofluorescence of TDP-4FL inclusion morphology, A232E HeLa. On the procedure:
as §1, §2, §3, §4, §5

In test [3] the test system is WT HeLa cells expressing TDP-4FL. Briefly: Immunofluorescence of TDP-4FL inclusion morphology, WT HeLa. The note with it: for Proportion of Morphology: Aggregate / Proportion of Morphology: Anisosome: WT. On the procedure: HeLa Cells were plated onto glass coverslips and transfected with TDP-4FL using Fugene HD for 24 hours. Cells were fixed with 4% paraformaldehyde (Electron Microscopy Sciences), permeabilized with 0.1% Triton-X (Thermo Fisher Scientific), and blocked with 2% FBS DPBS. Primary antibodies were diluted in 2% FBS DPBS. Cells were stained with 300 nM DAPI, and coverslips were mounted onto glass slides using ProLong Glass Antifade Mountant (Thermo Fisher Scientific). Confocal images were obtained using a Leica TCS SPE laser scanning confocal microscope.
(A) High power magnification immunofluorescence confocal images of HeLa cells expressing TDP-4FL stained for myc-TDP (green) Scale bar, 5 µm. […]
(C) Representative confocal microscopy immunofluorescence confocal images of HeLa cells […]
as §4, §5

Take `CC(C)C[C@@H](C=O)NC(=O)[C@H](CC(C)C)NC(=O)[C@H](CC(C)C)NC(=O)OCc1ccccc1` [MG132] (Cbz-Leu-Leu-Leu-aldehyde): the “Proportion of Morphology: Aggregate” value is 0.608 and 0.623 and 0.684 and 0.640 in test [1] (MG132 3 hours); 0.768 and 0.744 and 0.727 in test [1] (MG132 6 hours); 0.604 and 0.568 and 0.630 and 0.595 in test [2] (MG132 3 hours); 0.766 and 0.785 and 0.833 in test [2] (MG132 6 hours); 0.538 and 0.500 and 0.591 and 0.474 in test [3] (MG132 3 hours); 0.636 and 0.719 and 0.766 in test [3] (MG132 6 hours). The “Proportion of Morphology: Anisosome” value in test [1] (MG132 3 hours) is 0.392 and 0.377 and 0.316 and 0.360; in test [1] (MG132 6 hours) it was 0.232 and 0.256 and 0.273; in test [2] (MG132 3 hours), 0.396 and 0.432 and 0.370 and 0.405; in test [2] (MG132 6 hours) it was 0.234 and 0.215 and 0.167; in test [3] (MG132 3 hours), 0.462 and 0.500 and 0.409 and 0.526; in test [3] (MG132 6 hours), 0.364 and 0.281 and 0.234. In addition, the “TDP-4FL inclusion size and morphology upon proteasome inhibition” value in test [3] (4 μM MG132, 1 μM ixazomib or 1 μM epoxomicin, 3 or 6 hours) is reported as “coalesced into larger, irregularly shaped aggregates”.
